# Data: patent US20210353566A1, “THE USE OF CHOLINE SUPPLEMENTATION AS THERAPY FOR APOE4-RELATED DISORDERS” (Massachusetts Institute of Technology, priority 2020, published 2021)
# Assays:
# APOE4-expressing yeast = assay: Growth rate of APOE4-expressing yeast in minimal CSM media; type: cell-based; conditions: ethanolamine 1 mM, choline chloride 1 mM, choline bitartrate 100 μg/ml, compared to APOE3 strain
# Description: The data was normalized to the growth of untreated yeast strain expressing GFP (control). Data are represented as mean±SD, n=3. […] Data is represented as mean±SD, n=6 (Student's t-test, ns p>0.05; *** p≤0.001).
# In order to explore APOE4-mediated lipid dysregulation in an unbiased manner, yeast were built and interrogated that express APOE3 or APOE4 in to the secretory pathway.
# APOE4 microglia = conditions: interferon gamma
# Description: Data is represented as mean±SD, n=3-5 (ANOVA with multiple comparisons, * p≤0.05, ** p≤0.01).
# Many AD risk factors are expressed in microglia including APOE, which along with TREM2, coordinates the transition from homeostatic to disease-associated state (Kraseman et al, 2017; Keren-Shaul et al, 2017).
# APOE4 astrocytes [1] = assay: Lipid droplet number (LipidTox) in iPSC-derived APOE4 astrocytes in supplemented media; type: cell-based, human; conditions: for LD number per cell: APOE4 astrocytes, supplemented media (CDP-choline 100 μM) vs vehicle
# Protocol: (§1) Right, quantification of the lipid droplet number per cell (n=4 experiments). […] Lipid were extracted from APOE3 and APOE4 iPSC-derived astrocytes grown in a regular media or the media supplemented with CDP-choline (100 μM). Data is represented as mean±SD, n=3 experiments.
# EFAD mice = tested on: EFAD mice
# Description: FIGS. 7A-7C show graphs depicting mice weight over time. FIG. 7A depicts mice fed a high choline diet (3.4 g/kg choline chloride) and minimum recommended choline diet (0.7 g/kg choline chloride) for one month. FIG. 7B depicts mice fed a sub-recommended choline diet (0.1 g/kg choline chloride) compared to standard choline (1.1 g/kg choline chloride) for one month. FIG. 7C depicts mice fed a high choline diet (3.4 g/kg choline chloride) and minimum recommended choline diet (0.7 g/kg choline chloride) for three months.
# The “EFAD” APOE knock-in mouse were selected, where the endogenous Apoe locus is replaced with the human isoform of APOE2, APOE3, or APOE4 in 5×FAD mice, and where APOE isoform effects on disease progression have been documented (Tai et al, 2017). Custom chow containing the National Research Council (NRC) minimum, (0.7 g/kg choline chloride) and NRC maximum (3.4 g/kg choline chloride) was manufactured and fed these to EFAD mice for 4-12 weeks (˜84 days).
# APOE4 astrocytes [2] = assay: Lipid droplet quantification (LipidTox) in iPSC-derived astrocytes treated with oleic acid; type: cell-based, human; conditions: oleic acid 20 μM vs vehicle
# Description: (§2) FIG. 1A is a schematic depicting the use of isogenic astrocytes derived from patient-derived iPSCs and the lipidomic analysis. FIG. 1B is a heatmap showing the fold change (log 2) between APOE4/APOE4 and APOE3/APOE3 in abundance of phospholipids (˜150 lipid species, upper panel) and triglycerides (˜120 species, lower panel). FIG. 1C is a graph presenting a fold change difference of the number of unsaturated bonds in fatty acids attached to triglycerides (TAGs). […] Data is represented as mean±SD (Student's t-test, **** p≤0.0001). FIG. 1E is a fluorescent microscopy images of the APOE3/APOE3 and APOE4/APOE4 astrocytes stained with an anti-Perilipin 2 antibody. Right, quantification of the Perilipin-2 foci per cell (each point (n) is an average of four wells, n=4). Data is represented as mean±SD (Student's t-test, **** p≤0.0001). FIG. 1F is a quantification of lipid droplets in astrocytes treated with vehicle (control) or with oleic acid (20 μM) (n=4 experiments).
# (§3) APOE is expressed in several organs, with the highest expression in the liver, followed by the brain. In the brain, astrocytes and to some extent microglia are the major cell types that express APOE in the brain (Kim, Basak et al. 2009). It was hypothesized that APOE4-mediated lipid dysregulation contributes to its role as a disease risk factor. […]
# APOE3 astrocytes = assay: as above; type: cell-based, human; conditions: oleic acid 20 μM vs vehicle
# Description: as §2, §3
# APOE4 astrocytes [3] = assay: Intracellular TAGs and their unsaturation extracted from iPSC-derived astrocytes; type: cell-based, human; conditions: CDP-choline 100 μM vs regular media
# Protocol: as §1
# [4] = chow 0.7 g/kg and 3.4 g/kg choline chloride, 4-12 weeks
# [5] = diets 0.1, 0.7, 1.1, 3.4 g/kg choline chloride, one or three months
smiles,measurement,setting,value
C[N+](C)(C)CCO.O=C([O-])C(O)C(O)C(=O)O (stereo not shown) [choline bitartrate],growth of APOE4 yeast in supplemented media,APOE4-expressing yeast,sufficient to suppress the APOE4-associated growth defect
NCCO [ethanolamine],growth of APOE4 yeast in supplemented media,APOE4-expressing yeast,did not influence growth
C[N+](C)(C)CCO.[Cl-] [choline chloride],growth of APOE4 yeast in supplemented media,APOE4-expressing yeast,sufficient to suppress the APOE4-associated growth defect
same,"lipid droplet volume, APOE4 vs APOE3 microglia","APOE4 microglia; supplemented 65 μM Choline Chloride vs low 15 μM, extended culture",no difference is detected
same,IL-1b induction,APOE4 microglia; supplemented 250 μM Choline Chloride vs low 65 μM,rescued
same,LD number per cell,APOE4 astrocytes [1],"significant decrease in the LD number, down to the levels found in APOE3-expressing astrocytes"
same,"lipid droplet accumulation, dose dependence","APOE4 astrocytes [1]; choline chloride 1 μM, 10 μM, 100 μM in astrocyte media, extended culture 14 days",improves lipid droplet accumulation in a dose-dependent manner
same,general health,EFAD mice; [4],general health appeared normal
same,toxicity,EFAD mice; [4],no clear indication of toxicity
same,body condition or appetite,EFAD mice; [5],no significant defects
same,mice weight over time,EFAD mice; [5],gained appropriate weight
CCCCCCCC/C=C\CCCCCCCC(=O)O [oleic acid],lipid droplet accumulation,APOE4 astrocytes [2],~3 fold
same,increase of lipid droplet content,APOE3 astrocytes,~1.5 fold
C[N+](C)(C)CCOP(=O)(O)OP(=O)([O-])OC[C@H]1O[C@@H](n2ccc(N)nc2=O)[C@H](O)[C@@H]1O [CDP-choline],intracellular TAG levels,APOE4 astrocytes [3],normalizes
same,unsaturation of TAGs (number of unsaturated bonds in fatty acids),APOE4 astrocytes [3],normalizes
same,LD number per cell,APOE4 astrocytes [1],"significant decrease in the LD number, down to the levels found in APOE3-expressing astrocytes"
